From patent US7030140B2, “Substituted benzimidazole antiviral agents” (Bristol-Myers Squibb Company, priority 1998, dated 2006)
Counter-ions that a name gives are not always drawn.

Assays:
[1] = in vitro; conditions: human
[2] = test system: respiratory syncytial virus Long strain; assay: microbe, parasite or virus in culture; assay type: cell-based; conditions: for % cell protection from RSV at 4 µg/mL: human respiratory syncytial virus, 96 h, 4 μg/mL of compound, RSV Long strain-infected HEp-2 cells, compound added 1 hour post infection, 4 days, MTT
[3] = test system: HEp-2 (ATCC CCL 23) cells

| SMILES | CC50 at 4 days [1] [µM] | % cell protection from RSV at 4 µg/mL [2] [%] | CC50 [3] [µM] | % Cell protection at 4 μg/mL [2] [%] | cell protection ([2]; control compound at 2.5 μg/mL (corresponding to 10.2 μM)) [%] |
| --- | --- | --- | --- | --- | --- |
| CCCCn1c(Cn2nnc3ccccc32)nc2ccccc21 [Example 19, 1-(1-Butyl-1H-benzimidazol-2-ylmethyl)-1H-benzotriazole] | 12 | 95 | – | – | – |
| CC(C)CCn1c(Cn2nnc3ccccc32)nc2ccccc21 [Example 20, 1-[1-(3-Methylbutyl)-1H-benzimidazol-2-ylmethyl)-1H-benzotriazole] | 40 | 87 | – | – | – |
| CC(C)=CCn1c(Cn2nnc3ccccc32)nc2ccccc21 [Example 21, 1-[1-(3-Methyl-2-butenyl)-1H-benzimidazol-2-ylmethyl]-1H-benzotriazole] | 69 | 98 | – | – | – |
| CC(C)CCCn1c(Cn2nnc3ccccc32)nc2ccccc21 [Example 22, 1-[1-(4-Methylpentyl)-1H-benzimidazol-2-ylmethyl]-1H-benzotriazole] | 15 | 75 | – | – | – |
| CC(CCn1c(Cn2nnc3ccccc32)nc2ccccc21)CC(C)(C)C (stereo not drawn) [Example 23, 1-[1-(3,5,5-Trimethyl-hexyl)-1H-benzimidazol-2-ylmethyl]-1H-benzotriazole] | 59 | 98 | – | – | – |
| CSCCn1c(Cn2nnc3ccccc32)nc2ccccc21 [Example 24, 1-[1-(2-Methylthio-ethyl)-1H-benzimidazol-2-ylmethyl]-1H-benzotriazole] | 165 | 100 | – | – | – |
| C[S+]([O-])CCn1c(Cn2nnc3ccccc32)nc2ccccc21 (stereo not drawn) [Example 25, 1-[1-(2-Methylsulfinyl-ethyl)-1H-benzimidazol-2-ylmethyl]-1H-benzotriazole] | 56 | 100 | – | – | – |
| CS(=O)(=O)CCn1c(Cn2nnc3ccccc32)nc2ccccc21 [Example 26, 1-[1-(2-Methylsulfonyl-ethyl)-1H-benzimidazol-2-ylmethyl]-1H-benzotriazole] | 200 | 100 | – | – | – |
| CC(C)(C)C(O)Cn1c(Cn2nnc3ccccc32)nc2ccccc21 (stereo not drawn) [Example 27, 1-(2-Benzotriazol-1-ylmethyl-1-H-benzimidazol-1-yl)-3,3-dimethylbutan-2-ol] | 117 | 44 | – | – | – |
| c1ccc2c(c1)nnn2Cc1nc2ccccc2n1CC1OCCO1 [Example 28] | 29 | 61 | – | – | – |
| c1ccc2c(c1)nnn2Cc1nc2ccccc2n1CCC1OCCO1 [Example 29] | 185 | 98 | – | – | – |
| O=CCCn1c(Cn2nnc3ccccc32)nc2ccccc21 [Example 30, 1-[(2-Benzotriazol-1-ylmethyl)-1-H-benzimidazol-1-yl]-propionaldehyde] | 108 | 90 | – | – | – |
| OCCn1c(Cn2nnc3ccccc32)nc2ccccc21 [Example 31, 2-(2-Benzoatrizol-1-ylmethyl-benzimidazol-1-yl)-ethanol] | 21 | 48 | – | – | – |
| CS(=O)(=O)OCCn1c(Cn2nnc3ccccc32)nc2ccccc21 [Example 32, Methanesulfonic Acid, 2-(2-benzotriazol-1-ylmethyl-benzimidazol-1-yl)-ethyl ester] | 71 | 60 | – | – | – |
| [N-]=[N+]=NCCn1c(Cn2nnc3ccccc32)nc2ccccc21 [Example 33, 1-[1-(2-Azido-ethyl)-1-H-benzimidazol-2-ylmethyl)-1H-benzotriazole] | 75 | 82 | – | – | – |
| CNC(=O)Cn1c(Cn2nnc3ccccc32)nc2ccccc21 [Example 35, 2-(2-Benzotriazol-1-ylmethyl-benzimidazol-1-yl)-N-methyl acetamide] | 230 | 58 | – | – | – |

| SMILES | CC50 at 4 days [1] [µM] | % cell protection from RSV at 4 µg/mL [2] [%] | CC50 [3] [µM] | % Cell protection at 4 μg/mL [2] [%] | cell protection ([2]; control compound at 2.5 μg/mL (corresponding to 10.2 μM)) [%] |
| --- | --- | --- | --- | --- | --- |
| CC(=O)CCn1c(Cn2nnc3ccccc32)nc2ccccc21 [Example 37] | – | – | 59 | 100 | – |
| CC(O)CCn1c(Cn2nnc3ccccc32)nc2ccccc21 (stereo not drawn) [Example 38] | > 309 | 100 | – | – | – |
| CC(CCn1c(Cn2nnc3ccccc32)nc2ccccc21)=NO [Example 39] | > 33 | 100 | – | – | – |
| CC(N)CCn1c(Cn2nnc3ccccc32)nc2ccccc21 (stereo not drawn) [Example 40, 3-(2-Benzotriazol-1-ylmethyl-benzimidazol-1-yl)-1-methyl-propylamine] | 8.5 | 96 | – | – | – |
| NC(=O)CCn1c(Cn2nnc3ccccc32)nc2ccccc21 [Example 41, 3-(2-Benzotriazol-1-ylmethyl-1-H-benzimidazol-1-yl)-propionamide] | 4.3 | 75 | – | – | – |
| CC(C)(C)OC(=O)CCn1c(Cn2nnc3ccccc32)nc2ccccc21 [Example 42] | 168 | 100 | – | – | – |
| O=C(O)CCn1c(Cn2nnc3ccccc32)nc2ccccc21 [Example 43] | > 309 | 82 | – | – | – |
| N/C(CCn1c(Cn2nnc3ccccc32)nc2ccccc21)=N\O [Example 44, N-[3-(2-Benzotriazol-1-ylmethyl-benzimidazol-1-yl)-1-imino-propyl)-hydroxyamine] | 16 | 91 | – | – | – |
| N=C(N)CCn1c(Cn2nnc3ccccc32)nc2ccccc21 [Example 45, 3-(2-Benzotriazol-1-ylmethyl-benzimidazol-1-yl)-1-imino-1propyl-amine Diacetate] | 6.3 | 74 | – | – | – |
| c1ccc(Cn2c(Cn3nnc4ccccc43)nc3ccccc32)cc1 [Example 46, 1-[(1-Phenylmethyl-1H-benzimidazol)-2-ylmethyl]-1H-benzotriazole] | 97 | 53 | – | – | – |
| c1cncc(Cn2c(Cn3nnc4ccccc43)nc3ccccc32)c1 [Example 47, 1-[1-(Pyridin-3-yl-methyl)-1H-benzimidazol-2-ylmethyl]-1H-benzotriazole] | 250 | 40 | – | – | – |
| c1ccc(CCn2c(Cn3nnc4ccccc43)nc3ccccc32)cc1 [Example 48, 1-[1-(2-Phenethyl)-1-H-benzimidazol-2-ylmethyl)-1H-benzotriazole] | 2.6 | 95 | – | – | – |
| O=C(Cn1c(Cn2nnc3ccccc32)nc2ccccc21)c1ccccc1 [Example 49, 2-[(2-Benzotriazol-1-ylmethyl)-benzimidazol-1-yl]-1-phenyl-ethanone] | 18 | 76 | – | – | – |
| OC(Cn1c(Cn2nnc3ccccc32)nc2ccccc21)c1ccccc1 (stereo not drawn) [Example 50, 2-[(2-Benzotriazol-1-ylmethyl)-benzimidazol-1-yl]-1-phenyl-ethanol] | 36 | 94 | – | – | – |
| CC(C)CCn1c(Cn2nc3ccccc3n2)nc2ccccc21 [Example 61, 2-[1-(3-methylbutyl)-1H-benzimidazol-2-ylmethyl]-2H-benzotriazole Dihydrochloride] | 27 | 78 | – | – | – |
| NC(=O)c1ncn([C@@H]2O[C@H](CO)[C@@H](O)[C@H]2O)n1 [Ribavirin, reference compound] | – | – | – | – | 100 |
